# Tests used:
# [1] = test system: OVA323-339-specific CD4+ T cells from OT-2 T cell TCR transgenic mice; assay: In vitro epitope presentation assay, MHC class II (BMDCs, proliferation of OT-2 T cells); format: cell-based, mouse; details: for in vitro proliferation of CD4 T cells (MHC class II presentation): BMDCs loaded 4 h with 300 nM ZxxOVACD8CD4, LPS o.n., 4 days
# Experimental: BMDCs were loaded 4 h with 300nM of the different Zebra CPP truncation conjugated to both ovalbumin CD8 and CD4 epitopes (Z13OVACD8CD4, Z15OVACD8CD4 and Z18OVACD8CD4), then washed and incubated o.n. with 100 ng/ml of LPS. Efficient MHC class I or class II-restricted presentation was monitored after 4 days with CFSE-labeled naïve OVA257-264-specific CD8^+T cells from OT-1 T cell receptor (TCR) transgenic mice OT1 cells (A) or CFSE-labeled naïve OVA323-339-specific CD^+T cells from OT-2 T cell TCR transgenic mice respectively. As positive control, BMDCs were pulsed for 1 h with 5 uM peptide. Data from one experiment representative of three independent experiments.
# In order to assess the capacity of the ZEBRA CPP truncations to stimulate an integrated immune response including CD4 T cells, antigenic cargoes were produced that included both CD8 and CD4 T cell epitopes from OVA, and conjugated to Z13, Z15 and Z18. Accordingly, the following constructs (Z13OVACD8CD4, Z15OVACD8CD4 and Z18OVACD8CD4) were synthesized:
# Processing and presentation of the CD8 and CD4 T cell epitopes were monitored, as described in Example 2 for CD8 T cell epitopes, by measuring the in vitro proliferation of naïve OT-1 T cells (CD8 T cell epitopes; FIG. 4A) and OVA323-339-specific CD4^+ T cells from OT-2 T cell TCR transgenic mice, respectively (FIG. 4B). Briefly, OT-2 T cell TCR transgenic mice express TCR specific for MHC class II restricted OVA323-339.
# [2] = test system: OVA257-264-specific CD8+ T cells from OT-1 T cell receptor (TCR) transgenic mice; assay: Identification of the best ZEBRA CPP truncations in vitro (proliferation assay) and in vivo (CD8 T cell immune response after vaccination); format: cell-based, mouse (C57BL/6; details: each CPP truncation conjugated to OVACD8 epitope; in vitro BMDCs loaded with 0.3 μM, 4 days with OT-1 cells; in vivo 10 nmol s.c. wk0 and wk2 with anti-CD40 and Hiltonol
# From the text: The functionality of the different ZEBRA CPP truncations was validated both in vitro and in vivo, based on the capacity to stimulate MHC class-I restricted CD8 T cells specific for a model antigen OVA (OVA257-264-specific CD8^+ T cells from OT-1 T cell receptor (TCR) transgenic mice). This capacity should reflect transport of the OVA antigen cargo into APCs. The functional read-out of these experiments was proliferation of OVA-specific CD8 T cells in vitro (FIG. 2A), and for the in vivo studies, the induction of OVA-specific CD8 T cells in the blood of mice vaccinated with the different CPP-OVA conjugates together with adjuvant (FIG. 2B).
# To assess the proliferation of OVA-specific CD8 T cells in vitro, bone marrow derived dendritic cells (BMDCs) were prepared from C57BL/6 mice as previously described (Santiago-Raber (2003), J. Exp. Med. 197, 777-788), and used at day 9-10 of culture.
# BMDCs were loaded with 0.3 μM of each Zebra CPP truncation (Z13 to Z20) conjugated to OVACD8 epitope as described above for 4 hours at 37° C., washed 3 times, then matured overnight at 37° C. with 100 ng/ml LPS (from Salmonella abortus, equi S-form, Enzo Life Sciences). Antigen-loaded mature BMDC were then mixed at a ratio of 1:10 with OT-1 T cell receptor (TCR) transgenic mice splenocytes that had been stained with 10 μM 5-(and 6) Carboxyfluorescein diacetate succinimidyl ester (CFSE) (Life Technologies). After 4 days co-incubation of spleen cells and BMDCs, antigen-specific proliferation was assessed by flow cytometry, measuring CFSE dilution on CD8 T cells and live-gated cells. OT-1 mice express TCR specific for MHC class I restricted OVA257-264.
# To assess the induction of OVA-specific CD8 T cells in vivo, C57/BL6 mice were assigned to nine different groups (Z12 to Z20, respectively). Each group of mice was vaccinated by subcutaneous injection of 10 nmol of one selected Zebra CPP truncation (one selected from Z12 to Z20) conjugated to OVACD8 epitope as described above with 100 μg of anti-CD40 at week0 and week2. Mice were also injected with 50 μg of Hiltonol i.m. (right hind leg). Mice were bled 1 wk after the 2nd vaccination in order to assess OVA257-264-specific CD8 T cells.
sequence,measurement,setting,value
KRYKNRVASRKSRAKFK (CPP Z15) [ZEBRA CPP truncation],in vitro proliferation of CD4 T cells (MHC class II presentation),[1],proliferation of both CD8 and CD4 T cells occurred
same,promoting cross-presentation (stimulation of OVA-specific CD8 T cells),[2],best truncations for promoting cross-presentation
REVAAAKSSENDRLRLLLK [Z18],in vitro proliferation of CD4 T cells (MHC class II presentation),[1],proliferation of both CD8 and CD4 T cells occurred
same,efficiency of DC transduction and cargo delivery into the MHC class II antigen processing pathway,"[1]; ZxxOVACD8CD4, 300 nM, compared with Z13 or Z15",less efficient
same,promoting cross-presentation (stimulation of OVA-specific CD8 T cells),[2],best truncations for promoting cross-presentation
KRYKNRVASRKSRAKFKQLLQHYREVAAAK [Z14],promoting cross-presentation (stimulation of OVA-specific CD8 T cells),[2],best truncations for promoting cross-presentation
KRYKNRVASRKSRAKFKQLLQHYREVAAAKSSENDRLRLLLK [Z13],in vitro proliferation of CD4 T cells (MHC class II presentation),[1],proliferation of both CD8 and CD4 T cells occurred
same,promoting cross-presentation (stimulation of OVA-specific CD8 T cells),[2],best truncations for promoting cross-presentation
